The source of these data is US9181230B2, “Morpholine compounds and uses thereof” (Hoffmann-La Roche Inc., priority 2013, dated 2015).

Counter-ions that a name gives are not always drawn.

Sequence of mouse TAAR1 (Q923Y8 whole entry): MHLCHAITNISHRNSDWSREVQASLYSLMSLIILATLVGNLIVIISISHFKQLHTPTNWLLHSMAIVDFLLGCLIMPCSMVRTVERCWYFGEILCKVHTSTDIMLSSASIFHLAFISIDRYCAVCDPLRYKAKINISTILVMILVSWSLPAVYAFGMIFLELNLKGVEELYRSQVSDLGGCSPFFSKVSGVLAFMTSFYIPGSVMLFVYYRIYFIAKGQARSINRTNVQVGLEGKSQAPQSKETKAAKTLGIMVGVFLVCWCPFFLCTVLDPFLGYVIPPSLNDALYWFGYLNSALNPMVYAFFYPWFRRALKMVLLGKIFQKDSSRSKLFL

The target of the first assay is mouse TAAR1 (Mus musculus (Mouse), UniProt Q923Y8). Description: Radioligand binding assay on mouse TAAR1. As to conditions: mouse TAAR1, membranes of HEK-293 cells, first value of the cell pair mouse/rat. The procedure:
(§1) For the construction of expression plasmids the coding sequences of human, rat and mouse TAAR 1 were amplified from genomic DNA essentially as described by Lindemann et al.. The Expand High Fidelity PCR System (Roche Diagnostics) was used with 1.5 mM Mg^2+ and purified PCR products were cloned into pCR2.1-TOPO cloning vector (Invitrogen) following the instructions of the manufacturer. PCR products were subcloned into the pIRESneo2 vector (BD Clontech, Palo Alto, Calif.), and expression vectors were sequence verified before introduction in cell lines.
(§2) HEK293 cells (ATCC # CRL-1573) were cultured essentially as described by Lindemann et al. (2005). For the generation of stably transfected cell lines HEK293 cells were transfected with the pIRESneo2 expression plasmids containing the TAAR coding sequences (described above) with Lipofectamine 2000 (Invitrogen) according to the instructions of the manufacturer, and 24 hrs post transfection the culture medium was supplemented with 1 mg/ml G418 (Sigma, Buchs, Switzerland). After a culture period of about 10 d clones were isolated, expanded and tested for responsiveness to trace amines (all compounds purchased from Sigma) with the cAMP Biotrak Enzyme immunoassay (EIA) System (Amersham) following the non-acetylation EIA procedure provided by the manufacturer.
(A) Radioligand Binding Assay on Mouse TAAR1
(§3) Membrane Preparation and Radioligand Binding.
(§4) HEK-293 cells stably expressing mouse TAAR1 were maintained at 37° C. and 5% CO2 in DMEM high glucose medium, containing fetal calf serum (10%, heat inactivated for 30 min at 56° C.), penicillin/streptomycin (1%), and 375 μg/ml geneticin (Gibco). Cells were released from culture flasks using trypsin/EDTA, harvested, washed twice with ice-cold PBS (without Ca^2+ and Mg^2+), pelleted at 1,000 rpm for 5 min at 4° C., frozen and stored at −80° C. Frozen pellets were suspended in 20 ml HEPES-NaOH (20 mM, pH 7.4) containing 10 mM EDTA and homogenized with a Polytron (PT 6000, Kinematica) at 14,000 rpm for 20 s. The homogenate was centrifuged at 48,000×g for 30 min at 4° C. Subsequently, the supernatant was removed and discarded, and the pellet resuspended in 20 ml HEPES-NaOH (20 mM, pH 7.4) containing 0.1 mM EDTA using the Polytron (20 s at 14,000 rpm). This procedure was repeated and the final pellet resuspended in HEPES-NaOH containing 0.1 mM EDTA and homogenized using the Polytron. Typically, aliquots of 2 ml membrane portions were stored at −80° C. With each new membrane batch the dissociation constant (Kd) was determined via a saturation curve. […] Nonspecific binding was defined as the amount of ^3[H]-(S)-4-[(ethyl-phenyl-amino)-methyl]-4,5-dihydro-oxazol-2-ylamine bound in the presence of 10 μM unlabeled ligand. All compounds were tested at a broad range of concentrations (10 pM to 10 μM) in duplicates. […] The 96 deep well plates were incubated for 1 hr at 4° C. Incubations were terminated by rapid filtration through Unifilter-96 plates (Packard Instrument Company) and glass filters GF/C (Perkin Elmer) presoaked for 1 hr in polyethylenimine (0.3%) and washed 3 times with 1 ml of cold binding buffer. After addition of 45 μl of Microscint 40 (PerkinElmer) the Unifilter-96 plate was sealed and after 1 hr the ratioactivity counted using a TopCount Microplate Scintillation Counter (Packard Instrument Company).
Regarding `Clc1ccc(-c2cc(-c3ccc(C4CNCCO4)cc3)n[nH]2)cc1` (stereo not shown) [Example 3, 2-(4-(5-(4-Chlorophenyl)-1H-pyrazol-3-yl)phenyl)morpholine hydrochloride], the Ki (in general, the dissociation constant of the complex between target and ligand, obtained from inhibition or displacement) stood at 0.001 µM.
Turning to `c1cc([C@H]2CNCCO2)ccc1-c1cc(C2CCOCC2)[nH]n1` [Example 24, (S)-2-(4-(5-(Tetrahydro-2H-pyran-4-yl)-1H-pyrazol-3-yl)phenyl)morpholine hydrochloride], the inhibitory constant (Ki) was greater than 20 µM.
Still for that read-out and setting: under `c1ccc2[nH]c(-c3ccc(C4CNCCO4)cc3)nc2c1` (stereo not shown) [Example 1, 2-(4-(1H-Benzo[d]imidazol-2-yl)phenyl)morpholine hydrochloride] stands 0.038 µM; under `N#Cc1ccc(-c2cc(-c3ccc([C@H]4CNCCO4)cc3)n[nH]2)cc1` [Example 28, (S)-4-(3-(4-(Morpholin-2-yl)phenyl)-1H-pyrazol-5-yl)benzonitrile hydrochloride], 0.001 µM.
Consider `Fc1ccc(-c2nc(-c3ccc([C@@H]4CNCCO4)cc3)n[nH]2)cc1` [Example 23, (R)-2-(4-(5-(4-Fluorophenyl)-1H-1,2,4-triazol-3-yl)phenyl)morpholine hydrochloride], for which the affinity corresponds to a Ki of 0.0015 µM.

The target of another assay is rat TAAR1 (Rattus norvegicus (Rat), UniProt Q923Y9). Description: Radioligand binding assay on rat TAAR1. As to conditions: rat TAAR1, membranes of HEK-293 cells, second value of the cell pair mouse/rat. The method, then: as §1, §2
Sequence of rat TAAR1 (Q923Y9 whole entry): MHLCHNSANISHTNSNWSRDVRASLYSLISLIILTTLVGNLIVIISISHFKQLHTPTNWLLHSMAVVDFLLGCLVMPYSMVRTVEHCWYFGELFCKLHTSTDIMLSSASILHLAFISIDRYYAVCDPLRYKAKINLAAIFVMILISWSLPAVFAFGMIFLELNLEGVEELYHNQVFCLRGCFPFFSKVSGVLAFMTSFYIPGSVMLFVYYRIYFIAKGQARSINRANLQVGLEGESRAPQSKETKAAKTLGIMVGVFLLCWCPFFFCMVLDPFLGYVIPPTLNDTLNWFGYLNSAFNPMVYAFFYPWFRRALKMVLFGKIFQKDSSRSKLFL
(B) Radioligand Binding Assay on Rat TAAR1
as §3
as §4, with “rat” for “mouse”
In turn, `Clc1ccc(-c2cc(-c3ccc(C4CNCCO4)cc3)n[nH]2)cc1` (stereo not shown) [Example 3, 2-(4-(5-(4-Chlorophenyl)-1H-pyrazol-3-yl)phenyl)morpholine hydrochloride] registered a Ki of 0.0034 µM.
On to `c1cc([C@H]2CNCCO2)ccc1-c1cc(C2CCOCC2)[nH]n1` [Example 24, (S)-2-(4-(5-(Tetrahydro-2H-pyran-4-yl)-1H-pyrazol-3-yl)phenyl)morpholine hydrochloride], for which the affinity, expressed as Ki, was 0.0722 µM.
In the case of `c1ccc2[nH]c(-c3ccc(C4CNCCO4)cc3)nc2c1` (stereo not shown) [Example 1, 2-(4-(1H-Benzo[d]imidazol-2-yl)phenyl)morpholine hydrochloride], affinity was put at a Ki of 0.76 µM.
Same read-out and setting: then `N#Cc1ccc(-c2cc(-c3ccc([C@H]4CNCCO4)cc3)n[nH]2)cc1` [Example 28, (S)-4-(3-(4-(Morpholin-2-yl)phenyl)-1H-pyrazol-5-yl)benzonitrile hydrochloride], with 0.0168 µM; and `Fc1ccc(-c2nc(-c3ccc([C@@H]4CNCCO4)cc3)n[nH]2)cc1` [Example 23, (R)-2-(4-(5-(4-Fluorophenyl)-1H-1,2,4-triazol-3-yl)phenyl)morpholine hydrochloride], with 0.0196 µM.
